Reference: patent publication US12263182B2, “Method of introducing an mRNA molecule into a cell” (PCI Biotech AS, priority 2018, dated 2025)

Tests used:
[1] = system: skin of mice; test: Intradermal naked luciferase mRNA delivery with PCI, bio-luminescence imaging (IVIS) of injection sites; type: in vivo; details: for effect on mRNA delivery (fold increase in luminescence vs mRNA only): Example 1C, 2 μg unmodified mRNA L-6307, 0.003 μg TPCS2a
Description: Firefly luciferase mRNA (1921 nucleotides in length; L-6107—with modified bases 5-methylcytidine (5meC) and pseudo-uridine (ψ); L-6307—unmodified mRNA; L-7202—with modified base 5-methoxyuridine (5moU), and with the TriLink CleanCap™ modification as the capping structure, purchased from TriLink Biotechnologies, San Diego, USA) and TPCS2a (Amphinex®, PCI Biotech AS, Norway) were mixed in a volume of 20 μl PBS and the mixture was injected into the skin of mice at time 0. Different doses were used in different experiments, and in control samples no TPCS2a was used. Injections were performed in 4 sites (A-D) per mouse (see FIG. 1 and diagram and table below), and the injection sites were illuminated in general 60 min after mRNA/TPCS2a injection. With this set-up the two sites in each animal not receiving TPCS2a act as controls internal to each animal. This is useful for being able to correct for possible differences between animals e.g. in the injection and distribution of luciferin prior to the bio-luminescence imaging.
Injection sites were illuminated with blue light (wavelength between 400 and 540 nm with a peak at around 435 nm) from the LumiSource illumination device.
4-6 or 20-24 hours after illumination luciferase activity at the injection sites was analysed by bio-luminescence imaging in the IVIS instrument (IVIS Spectrum, model 124375R from PerkinElmer). Pictures were taken 20 min after luciferin injection, and bio-luminescence in a defined region-of-interest (ROI) around each injection site was quantified. The procedure for IVIS imaging was as follows: i) The mice were given an intraperitoneal injection of 3 mg D-Luciferin (200 μl of 15 mg/ml stock).
ii) After approximately 10 min, the mice were anaesthetized by a subcutaneous injection of Zoletil (10-15 mg/kg xylasin, 5-10 mg/kg butorphanol and 15-20 mg/kg Zoletil (containing zolazepam and tiletamine)).
iii) 20 min after D-luciferin injection, mice were placed in the IVIS instrument and pictures were taken with automatic exposure of Luminescence (Andor camera IS0825R4582; iKon Living Image version: 4.5.2.18424. Binning factor: 8; Excitation filter: Block; Emission filter: Open; f Number: 1)
iv) The bio-luminescence in ROIs covering each injection site was measured to quantify luciferase expression. The detailed set-up of a typical experiment (Example 1) can be found in Table 1.
Animals were injected by mRNA and TPCS2a as described under Methods and treated as described in Table 1 with the sites shown in FIG. 8.
3 μg mRNA and different amounts of TPCS2a (ranging from 0.0003 μg to 10 μg) were mixed and injected into the skin of mice as described under Methods. 60 min after the injections the mice were illuminated for 6 (in general) or 3 min (in one case) with blue light from the LumiSource illumination device. The animals were injected with luciferin and imaged in the IVIS instrument as described under Methods. The luminescence in defined regions of interest round the injection sites was assessed in the IVIS instrument. For each animal the luminescence at the sites receiving mRNA+TPCS2a was compared to the luminescence at the sites receiving mRNA only, and the fold increase (FI) in luminescence at the TPCS2a injected sites in each animal was calculated by the formula FI=luminescencemRNA+TPCS2a/luminescencemRNA only. […]
Lipofectamine is a very efficient transfection agent commonly used for delivery of mRNA and other nucleic acids; and it has also been used for mRNA delivery in vivo (Zangi et al., 2013, supra). However several type of toxic reactions have been observed with in vivo use of lipofectamine, limiting the possibilities for clinical use of this transfection agent. […]

[2] = system: TC-1 tumours; test: Intratumoural luciferase mRNA delivery with PCI (red light 652 nm), luciferase enzymatic assay on tumour homogenates; type: in vivo, mice; details: Example 2
Description: An experiment was performed to study in vivo naked mRNA delivery to TC-1 tumours (model for HPV-induced tumours) in mice.
In these experiments the TC-1 tumour model for HPV-induced cancer was employed. mRNA delivery was assessed by performing a luciferase enzymatic assay on homogenates from tumours harvested the day after illumination. Red light laser light illumination with a wavelength of 652 nm was used. The experiment was performed as follows: • Luciferase mRNA (L-7202 CleanCap™ FLuc mRNA (5moU)) from TriLink, 3 μg per injection) was mixed with TPCS2a and injected into the tumours in an injection volume of 20 μl. • 60 min after mRNA/TPCS2a injection the tumours were illuminated with different doses of red laser light (at 652 nm) for 12.5-500 seconds. • The day after illumination, all tumours were removed and frozen for later enzymatic assay for luciferase (Luciferase Assay System, Promega, Cat #E1500). • The protein content in the samples was measured with the RC DC Protein Assay kit (BioRad) assay, and the relative amounts of active luciferase in each sample was calculated as Relative Luminescence Units (RLU: Arbitrary units) per mg of protein.

[3] = system: MC-38 tumours; test: Intratumoural luciferase mRNA delivery with PCI (blue light), luciferase enzymatic assay on tumour homogenates; type: in vivo, mice; details: Example 3, 6 min blue light
Description: An experiment was performed to study in vivo naked mRNA delivery to colon adenocarcinoma tumours (MC-38 tumours) in mice.
The experiment was performed with Luciferase-encoding modified mRNA, and the effect was analysed by an enzymatic luciferase assay on tumour extracts, with tumours harvested 20 hours after illumination. Each animal had two tumours (A and B) that were injected and analysed separately.
TriLink modified luciferase mRNA (T14-GU03A), 3 μg was used per injection.
Female mice of the strain C57BL/6 (Charles River) were be used. Animal identification and conditions of housing, acclimatisation, environment, diet and water was in accordance with the current Standard Operating Procedures at the animal facilities at Oslo University Hospital—The Radium Hospital.
The animals were inoculated with 500 000 MC-38 cells per tumour, 2 tumours per animal. The size of the tumours on mRNA injection was 60-150 mm^3. Animals were randomized by tumour volume, animals with tumour ulcers were excluded. mRNA was mixed with TPCS2a and the mixture (25 μl) was injected into the tumours at time 0. The pure (naked) mRNA was injected at the same time point.
The injections were performed with gas anesthesia (Sevoflurane). The aim of the injection was to deposit a solution in the centre of the outer third of the tumour, avoiding the central core of the tumour. Insulin syringes were used to deliver the 25 μl of treatment.
The tumours in the PCI groups were illuminated (blue light from LumiSource) 60 min after mRNA/TPCS2a injection according to Table 5. The day after mRNA administration (i.e. around 20 hours after illumination) animals were killed and all tumours were removed and frozen for later homogenization and enzymatic assay for luciferase (Luciferase Assay System, Promega, Cat #E1500). After homogenization the amount of protein in the tumour extract was determined using the RC-DC Protein Assay (Bio-Rad Hercules, California, USA) and the luciferase enzymatic activity per mg tumour was calculated.

tetraphenyl chlorin disulfonate [TPCS2a]
enhancement of mRNA delivery by PCI, mean of all animals versus mRNA only ([1]; Example 1A, 12 sites each, 2 μg mRNA + 0.003 μg TPCS2a intradermal, 6 min blue light): about 3 times | mean bio-luminescence for the PCI treated sites versus the mRNA only sites ([1]; Example 1A, animal 6, 2 μg luciferase mRNA L-6107 + 0.003 μg TPCS2a intradermal, 6 min blue light, imaged 4 h after illumination): more than 5 times | effect on mRNA delivery, 6 versus 3 min illumination ([1]; Example 1B, 3 μg mRNA, 0.003 μg TPCS2a, 6 and 3 min blue light): comparable enhancement of mRNA delivery | effect on mRNA delivery (luciferase expression, fold increase vs mRNA only) ([1]; Example 1B, 3 μg mRNA, TPCS2a dose of 0.0003 μg, blue light): improved mRNA delivery | effect on mRNA delivery (luciferase expression, fold increase vs mRNA only) ([1]; Example 1B, 3 μg mRNA, TPCS2a doses above 0.3 μg (PCI10, PCI3, PCI1), 6 min blue light): strongly detrimental effect on mRNA delivery | effect on mRNA delivery (luciferase expression, fold increase vs mRNA only) ([1]; Example 1B, 3 μg mRNA, TPCS2a doses of 0.01 μg and below, 6 min blue light): significant enhancement of mRNA delivery | effect on mRNA delivery (luciferase expression, fold increase vs mRNA only) ([1]; Example 1B, 3 μg mRNA, TPCS2a doses of 0.3 to 0.03 μg, 6 min blue light): did not alter luciferase expression significantly | effect on mRNA delivery (fold increase in luminescence vs mRNA only) ([1]; 0.5 min blue light): enhanced mRNA delivery | effect on mRNA delivery (fold increase in luminescence vs mRNA only) ([1]; 4 min blue light): enhanced mRNA delivery | improvement of mRNA translation over what was achieved with lipofectamine ([1]; Example 1D, 2 μg mRNA L-7202 intradermal, 0.003 μg TPCS2a, 6 min blue light, imaged 4 h after illumination, comparator 6 μl lipofectamine): ~4 times | optimum illumination dose for PCI-enhanced mRNA delivery ([2]; 3 μg mRNA + 0.1 μg TPCS2a, red light 652 nm): around 2 J/cm^2 | effect on mRNA delivery versus mRNA alone (RLU/mg protein) ([2]; 3 μg mRNA + 0.1 μg TPCS2a, without illuminating the tumours): did not seem to enhance mRNA delivery significantly | effect on mRNA delivery and translation (RLU/mg protein) ([2]; 3 μg mRNA L-7202 + 0.1 μg TPCS2a intratumoural, red light 0.1 to 4 J/cm^2, tumours harvested day after illumination): strong enhancement of mRNA delivery and translation | effect on luciferase mRNA delivery (luciferase enzymatic activity in tumour homogenates, single tumours) ([3]; 3 μg mRNA + 0.001-0.01 μg TPCS2a intratumoural, harvested 20 h after illumination): substantially enhanced luciferase mRNA delivery | PCI-induced improvement in mRNA delivery compared to mRNA without PCI (group means) ([3]; 0.003/6 min group: 3 μg mRNA + 0.003 μg TPCS2a): about 3 times | PCI-induced improvement in mRNA delivery compared to mRNA without PCI (group means) ([3]; 0.01/6 min group: 3 μg mRNA + 0.01 μg TPCS2a): about 10 times
